According to PubChem BioAssay (NCI):
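How tested: cells in 96-well plates exposed to compound for 48 hours at five concentrations. At the TGI there is no net growth.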

Legend:
Assay in all cases: NCI-60 cell line screen, 48 h
[1] = tested on: SNB-19 CNS
[2] = tested on: CCRF-CEM leukemia
[3] = tested on: A549 NSCLC
[4] = tested on: SK-OV-3 ovarian
[5] = tested on: DMS 114 small cell lung
[6] = tested on: LOX IMVI melanoma
[7] = tested on: RXF 393 renal
[8] = tested on: SK-MEL-2 melanoma
[9] = tested on: HOP-92 NSCLC
[10] = tested on: SK-MEL-5 melanoma
[11] = tested on: SF-539 CNS
[12] = tested on: OVCAR-8 ovarian
[13] = tested on: UACC-257 melanoma
[14] = tested on: HCT-116 colon
[15] = tested on: U251 CNS
[16] = tested on: HCC-2998 colon
[17] = tested on: NCI-H460 lung
[18] = tested on: TK-10 renal
[19] = tested on: OVCAR-4 ovarian
[20] = tested on: OVCAR-3 ovarian
[21] = tested on: SNB-75 CNS
[22] = tested on: UO-31 renal
[23] = tested on: M19-MEL melanoma
[24] = tested on: ACHN renal
[25] = tested on: SW-620 colon
[26] = tested on: HOP-62 NSCLC
[27] = tested on: M14 melanoma
[28] = tested on: SK-MEL-28 melanoma
[29] = tested on: MOLT-4 leukemia
[30] = tested on: 786-0 renal
[31] = tested on: KM12 colon
[32] = tested on: SF-268 CNS
[33] = tested on: HT29 colon
[34] = tested on: CAKI-1 renal
[35] = tested on: K-562 leukemia
[36] = tested on: IGROV1 ovarian
[37] = tested on: HL-60(TB) leukemia
[38] = tested on: SF-295 CNS
[39] = tested on: NCI-H522 lung
[40] = tested on: EKVX NSCLC
[41] = tested on: OVCAR-5 ovarian
[42] = tested on: DLD-1 colon
[43] = tested on: RPMI-8226 leukemia
[44] = tested on: NCI-H23 lung
[45] = tested on: SN12C renal
[46] = tested on: NCI-H226 lung
[47] = tested on: SNB-78 CNS
[48] = tested on: LXFL 529 NSCLC
[49] = tested on: MALME-3M melanoma
[50] = tested on: COLO 205 colon
[51] = tested on: XF 498 CNS
[52] = tested on: KM20L2 colon
[53] = tested on: SR leukemia
[54] = tested on: DMS 273 small cell lung
[55] = tested on: HCT-15 colon
[56] = tested on: UACC-62 melanoma
[57] = tested on: A498 renal

CCc1ccccc1NC(=O)C1=C(C)NC(C)=C(C(=O)Nc2c(CC)cccc2CC)C1c1ccc2c(c1)OCO2 (stereo not drawn)
TGI [1]: 76.6 µM
TGI [2]: 51.4 µM
TGI [3]: 39.2 µM
TGI [4]: > 100 µM
TGI [5]: 53.5 µM
TGI [6]: 35.1 µM
TGI [7]: 25.4 µM
TGI [8]: 29.5 µM
TGI [9]: 36.4 µM
TGI [10]: 28.5 µM
TGI [11]: 40.4 µM
TGI [12]: 84.5 µM
TGI [13]: 35.4 µM
TGI [14]: 30.6 µM
TGI [15]: 30 µM
TGI [16]: 30.2 µM
TGI [17]: 33.8 µM
TGI [18]: 53.5 µM
TGI [19]: 35.9 µM
TGI [20]: 38.4 µM
TGI [21]: > 100 µM
TGI [22]: 29.8 µM
TGI [23]: 54.7 µM
TGI [24]: 35.1 µM
TGI [25]: 43.2 µM
TGI [26]: 35 µM
TGI [27]: 33.5 µM
TGI [28]: 36.6 µM
TGI [29]: 57.5 µM
TGI [30]: 34.8 µM
TGI [31]: 30.5 µM
TGI [32]: 57.6 µM
TGI [33]: 32.2 µM
TGI [34]: 39.7 µM
TGI [35]: 58.7 µM
TGI [36]: 94.7 µM
TGI [37]: 58.4 µM
TGI [38]: 48.5 µM
TGI [39]: 30.9 µM
TGI [40]: 69.4 µM
TGI [41]: 36.1 µM
TGI [42]: 51.3 µM
TGI [43]: 41.3 µM
TGI [44]: 31.2 µM
TGI [45]: 74.3 µM
TGI [46]: 43.4 µM
TGI [47]: 81.7 µM
TGI [48]: 33 µM
TGI [49]: 32.5 µM
TGI [50]: 44.1 µM
TGI [51]: 47.5 µM
TGI [52]: 39.3 µM

CCC1=C(CC)C1(C#N)[N+](=O)[O-]
TGI [1]: > 100 µM
TGI [2]: > 100 µM
TGI [3]: > 100 µM
TGI [53]: > 100 µM
TGI [54]: > 100 µM
TGI [4]: > 100 µM
TGI [5]: > 100 µM
TGI [6]: > 100 µM
TGI [8]: > 100 µM
TGI [10]: > 100 µM
TGI [11]: > 100 µM
TGI [12]: > 100 µM
TGI [13]: > 100 µM
TGI [14]: > 100 µM
TGI [15]: > 100 µM
TGI [17]: > 100 µM
TGI [18]: > 100 µM
TGI [19]: > 100 µM
TGI [55]: > 100 µM
TGI [20]: > 100 µM
TGI [22]: > 100 µM
TGI [23]: > 100 µM
TGI [24]: > 100 µM
TGI [25]: > 100 µM
TGI [26]: > 100 µM
TGI [27]: > 100 µM
TGI [29]: > 100 µM
TGI [30]: > 100 µM
TGI [31]: > 100 µM
TGI [32]: > 100 µM
TGI [33]: > 100 µM
TGI [34]: > 100 µM
TGI [35]: > 100 µM
TGI [36]: > 100 µM
TGI [56]: > 100 µM
TGI [37]: > 100 µM
TGI [38]: > 100 µM
TGI [39]: > 100 µM
TGI [40]: > 100 µM
TGI [41]: > 100 µM
TGI [42]: > 100 µM
TGI [57]: > 100 µM
TGI [43]: > 100 µM
TGI [44]: > 100 µM
TGI [45]: > 100 µM
TGI [46]: > 100 µM
TGI [47]: > 100 µM
TGI [48]: > 100 µM
TGI [49]: > 100 µM
TGI [50]: > 100 µM
TGI [52]: > 100 µM
